Results published in article PMC8501640, “Altered Env conformational dynamics as a mechanism of resistance to peptide-triazole HIV-1 inactivators” (Retrovirology, 2021).
*1 amine or outer side, *2 acyl side, *3 side chain or, on linkers, in order; H or OH if unused. Where a SMILES comes first, the peptide text is derived from it. Bridges are numbered along the chain shown (N, C = ends). [ ]: non-standard residue; d: D form. X1 = O=C([C@@H]1CC(n2cc([C]34[CH]5[CH]6[CH]7[CH]3[Fe]6754389%10[CH]4[CH]3[CH]8[CH]9[CH]4%10)nn2)CN1[*:1])[*:2]

Legend:
CEM-GFP cells = test: WST-1 cytotoxicity assay; format: cell-based; settings: up to concentrations of 125 μM
Method: The cytotoxicity was determined on CEM-GFP cells via a colorimetric assay to measure the relative proliferation rates of cells in culture. […] After 18 h of incubation, the media containing compounds were discarded and treated with 10% (v/v) WST-1 (a tetrazolium salt) in fresh media for one hour at 37 °C. The cell viability was determined by measuring the absorbance at 450 nm using a Tecan Infinite F50 plate reader.
Figure S1. […] Data represent means and standard deviations of three independent experiments performed in triplicate.

[1] = tested on: S143N NL4-3 Env on HEK293T cells; test: gp120 shedding analysis by flow cytometry, S143N Env; format: cell-based, HIV-1; settings: S143N mutant Env trimer; 50-fold higher than the EC50 value for wild type Env
Method: (§1) The measurements (mean fluorescence intensity) were obtained by flow cytometry using an anti-Env IgG (mAb 35O22) that recognizes a quaternary epitope at the gp120/gp41 interface.
(§2) The gp120 shedding assay was performed as described previously. Briefly, three million HEK293T cells per flask were transiently transfected with 4 μg of HIV-1 NL4-3 Env plasmid and transfection reagent FuGENE 6 (Promega). 5 mM EDTA in DPBS was used to detach cells at 24 h and cells were reseeded in 96-well plates with 50,000 cells per well. […] Cells were washed with fresh medium, detached with 5 mM EDTA, and then washed and resuspended in FC buffer (1% BSA and 1 mM EDTA in 10 mM PBS pH 7.4). 2% paraformaldehyde in DPBS was used to fix the cells for 15 min at room temperature. Cells were then washed and resuspended in the FC buffer three times. […] Cell counts and Env staining were assessed in counted cells on a Guava EasyCyte 5HT flow cytometry system (Millipore). Analyzed cells were subjected to forward/side scatter gating based on untreated control populations of identical transfection, and median fluorescence values were obtained using Guava InCyte 3.2 software. Data were analyzed in GraphPad Prism 9 using nonlinear regression fit with dose response-inhibitor equation (4 parameters).

[2] = tested on: V255I/S143N NL4-3 Env on HEK293T cells; test: gp120 shedding analysis by flow cytometry, V255I/S143N Env; format: cell-based, HIV-1
Method: as §1, §2

[3] = tested on: wild type NL4-3 Env on HEK293T cells; test: gp120 shedding analysis by flow cytometry, wild type Env; format: cell-based, HIV-1; settings: WT NL4-3 Env on HEK293T cells; 37 °C, 2 h; mAb 35O22 flow cytometry; read-out: EC50 of induced gp120 shedding (intact Env trimers remaining)
Method: as §1, §2

[4] = target: HxBc2 gp120 V255I/S143N monomer (Human immunodeficiency virus type 1 group M subtype B, UniProt P04578, S143N/V255I); test: Isothermal titration calorimetry, V255I/S143N gp120; format: binding, HIV-1; settings: 25 °C
Method: (§3) Heats were obtained at 25 °C by injection of 8 μL of PT (100 μM) into a sample cell of a VP-ITC containing 1.4 mL recombinant HxBc2 gp120 (6–8 μM). Solid lines represent fits to a single site binding model.
(§4) The resulting heat changes upon injection were integrated over a time range of 240 s, and the obtained values were fit to a standard single site-binding model using Origin® software.

[5] = target: HIV-1 HxBc2 gp120 WT monomer (Human immunodeficiency virus type 1 group M subtype B, UniProt P04578); test: Surface plasmon resonance, WT gp120; format: binding
Method: (§5) SPR experiments were performed on a Biacore 3000 biosensor (Global Cytiva Lifesciences) at 25 °C using PBS-P (10 mM Phosphate, 150 mM NaCl, pH 7.4, 0.005% P-20) as the running buffer. A CM5 sensor chip was docked and derivatized by amine coupling with HIV-1HxBc2 WT and mutant gp120 subunits using freshly prepared 1:1 50 mM NHS (N-hydroxysuccinamide):200 mM EDC (1-ethyl-3-(3-(dimethylamino)propyl) carbodiimide). […] The equilibrium dissociation constant was calculated as KD = k−1/k1.
(§6) Rate constants k1 and k-1 are defined as they are in the 1:1 binding model, while k2 and k-2 are first order rate constants describing isomerization and de-isomerization, respectively. Equations describing the time course of the interactions can be found in Additional file 1: Method S1. For the fit, it was assumed that the states Env·PT and Env·PT^∗ had the same SPR signal. Rate constants were determined using a least-squares gradient-step algorithm coded in Visual Basic and implemented through Microsoft Excel.

BaL.01 viruses = tested on: BaL.01 viruses; set-up: method as in PMID 24330857, PMID 26331669; settings: ref [16], [21], read-out: EC50 of induced gp120 shedding; cited from earlier work
HxBc2 gp120 WT monomer = HxBc2 gp120 WT monomer (Human immunodeficiency virus type 1 group M subtype B, UniProt P04578); test: Isothermal titration calorimetry, WT gp120; format: binding, HIV-1; settings: 25 °C
Method: as §3, §4

[6] = target: HxBc2 gp120 V255I monomer (Human immunodeficiency virus type 1 group M subtype B, UniProt P04578, V255I); test: Isothermal titration calorimetry, V255I gp120; format: binding, HIV-1
Method: as §3, §4

[7] = tested on: V255I NL4-3 Env on HEK293T cells; test: gp120 shedding analysis by flow cytometry, V255I Env; format: cell-based, HIV-1
Method: as §1, §2

[8] = target: HIV-1 HxBc2 gp120 V255I monomer (Human immunodeficiency virus type 1 group M subtype B, UniProt P04578, V255I); test: Surface plasmon resonance, V255I gp120; format: binding
Method: as §5, §6

[9] = target: HIV-1 HxBc2 gp120 V255I/S143N monomer (Human immunodeficiency virus type 1 group M subtype B, UniProt P04578, S143N/V255I); test: Surface plasmon resonance, V255I/S143N gp120; format: binding
Method: as §5, §6

CC[C@H](C)[C@@H]1NC(=O)[C@H](CC(N)=O)NC(=O)[C@@H](N)CC(=O)NCCCC[C@@H](C(N)=O)NC(=O)[C@H](Cc2c[nH]c3ccccc23)NC(=O)[C@@H]2CC(n3cc([C]45[CH]6[CH]7[CH]8[CH]4[Fe]786549%10%11[CH]5[CH]4[CH]9[CH]%10[CH]5%11)nn3)CN2C1=O (some centres unmarked) [AAR029b] (H-DNI[X1]WK-NH2; lactam 1-6 (inferred))
cytotoxicity (CEM-GFP cells): minimal | disruption of Env trimer (shedding) at high concentration [1]: only minimal disruption | decrease in sensitivity to ligand-induced shedding compared to wild type Env [2]: greater than tenfold | EC50 [3]: 249 ± 75 nM | ITC binding stoichiometry n [4]: 1.1 ± 0.04 | ITC −TΔS [4]: 1.0 ± 0.91 kcal/mol | SPR k1 ([5]; PT association): 11 (M^−1 s^−1) × 10^–5 | SPR k-1 ([5]; PT dissociation): 8.3 (s^−1) × 10^3 | EC50 (BaL.01 viruses): 315 nM | ITC binding stoichiometry n (HxBc2 gp120 WT monomer): 1.1 ± 0.04 | ITC −TΔS (HxBc2 gp120 WT monomer): 4.5 ± 0.90 kcal/mol | ITC binding stoichiometry n ([6]; V255I gp120 (HxBc2), 25 °C): 1.0 ± 0.01 | ITC −TΔS ([6]; V255I gp120 (HxBc2), 25 °C): 0.43 ± 0.30 kcal/mol | absolute impact of V255I substitution on enthalpy (ΔH) and entropy (TΔS) ([6]; mutant vs wild type gp120, ITC): 3.5 to 4.5 kcal/mol | decrease in sensitivity to ligand-induced shedding compared to wild type Env [7]: greater than tenfold | SPR k1 ([8]; V255I gp120, PT association): 5.4 (M^−1 s^−1) × 10^–5 | SPR k-1 ([8]; V255I gp120, PT dissociation): 130 (s^−1) × 10^3 | decrease in binding affinity (KD) by the V255I mutation, SPR ([8]; V255I vs WT gp120): 31 fold | SPR k1 ([9]; PT association): 3.6 (M^−1 s^−1) × 10^–5 | SPR k-1 ([9]; PT dissociation): 110 (s^−1) × 10^3
